Experimental data published in PMC12040169 (PLOS Biology, 2025).

test: in vitro; settings: human, hela cells, % viability

| Compound | viability at 28.5 h, 10 µM [%] |
| --- | --- |
| O=C(CN1CCCC1)Nc1sc2c(c1C(=O)NCc1ccccc1)CCCC2 [CBK268926] | 105 |
| N=c1n(CCCOc2ccccc2Cl)c2ccccc2n1CC(N)=O [CBK268927C] | 106 |
| O=C(COc1ccc2oc3ccccc3c2c1)c1ccccc1 [CBK268931] | 99.5 |
| NC(=O)c1ccc(NC(=O)CCCc2nc(-c3ccccc3Cl)no2)cc1 [CBK268932] | 103 |
| Cn1c(=O)c2c(ncn2CCCn2cnc3c2c(=O)n(C)c(=O)n3C)n(C)c1=O [CBK268933] | 106 |
| O=C(c1ccncc1)c1ccc(N2CCN(C3CC(=O)N(Cc4ccccc4)C3=O)CC2)cc1 (stereo not shown) [CBK268934] | 106 |
| NS(=O)(=O)c1ccc(NCc2ccccc2OCc2ccccc2F)cc1 [CBK268935] | 91.8 |
| Cc1ccc(S(=O)(=O)Nc2ccc(-c3cn4cccnc4n3)cc2)cc1[N+](=O)[O-] [CBK268936] | 60.5 |
| Cc1cc(C)nc(SCC(=O)Nc2cc(C(=O)O)cc([N+](=O)[O-])c2)n1 [CBK268937] | 86.8 |
| Cc1ccccc1NC(=O)COc1ccc(S(=O)(=O)N2CCCC2)cc1Cl [CBK268938] | 95.2 |
| Cn1c(=O)c2c(nc(NCCCO)n2C/C=C/c2ccccc2)n(C)c1=O [CBK268940] | 87.2 |
| CSc1nsc(SCC(=O)OC2CC3CCC2(C)C3(C)C)n1 (stereo not shown) [CBK268941] | 92.5 |
| Cc1sc(NC(=S)NC(=O)C(C)(C)C)c(C(N)=O)c1C [CBK268943] | 97.1 |
| Cc1ccc(CCC(=O)C(C#N)c2nc3ccccc3s2)o1 (stereo not shown) [CBK268944] | 112 |
| O=C(NC(=S)Nc1ccc(N2CCN(Cc3ccccc3F)CC2)cc1)c1ccco1 [CBK268946] | 92.6 |
| CSc1nsc(SCC(=O)Nc2ccc(OC(C)=O)cc2)n1 [CBK268948] | 88.1 |
| CCc1c(C)nc2n(c1=O)C(CS(=O)(=O)c1ccccc1)CS2 (stereo not shown) [CBK268949] | 94.7 |
| COc1ccc([N+](=O)[O-])cc1NC(=O)CSc1nnnn1C [CBK268950] | 93 |
| COc1ccc(/C(C#N)=C/c2ccc(-c3ccc(C(=O)O)cc3)o2)cc1OC [CBK268953] | 108 |
| CC(c1ccccc1)n1c(S)nnc1-c1cc(C(C)(C)C)n[nH]1 (stereo not shown) [CBK268954] | 92.2 |
| CCOC(=O)C1CCN(S(=O)(=O)c2ccc(OC)c(C)c2C)CC1 [CBK268955] | 96.1 |

| Compound | viability at 28.5 h, 10 µM [%] |
| --- | --- |
| CSc1ncc(Cl)c(C(=O)Nc2sc3c(c2C(=O)NCC2CCCO2)CCC3)n1 (stereo not shown) [CBK268959] | 95 |
| O=C(c1ccc([N+](=O)[O-])cc1)n1nc(-c2cccnc2)nc1NCc1ccc(F)cc1 [CBK268962] | 96.6 |
| O=C(Nc1cccc(-c2cn3cccnc3n2)c1)c1cccc([N+](=O)[O-])c1 [CBK268963] | 93 |
| NC(=O)CSc1nnc(-c2cc3ccccc3o2)n1Cc1ccccc1 [CBK268964] | 90.1 |
| COc1ccc(CNc2nc(-c3cccnc3)nn2C(=O)c2ccc([N+](=O)[O-])cc2)cc1 [CBK268966] | 98.9 |
| O=C(O)CCNS(=O)(=O)c1ccc(I)cc1 [CBK268968] | 111 |
| CN1CCN(C(=O)CSc2nnc(COc3ccccc3)o2)CC1 [CBK268970] | 85.4 |
| CSc1ncc(Cl)c(C(=O)Nc2sc3c(c2C(=O)NCc2ccco2)CCCC3)n1 [CBK268971] | 96.6 |
| NS(=O)(=O)c1ccc(NC(=O)c2cc([N+](=O)[O-])ccc2N2CCOCC2)cc1 [CBK268972] | 101 |
| Cc1cc(C)c(C)c(OCC(=O)N(Cc2nc(-c3ccccc3)no2)C2CCCCC2)c1 [CBK268974] | 104 |
| Nc1nn(S(=O)(=O)c2cccc3nsnc23)cc1-c1ccc(Br)cc1 [CBK268975] | 107 |
| CSc1ncc(Cl)c(C(=O)Nc2sc3c(c2C(=O)NCc2ccccc2)CCCC3)n1 [CBK268976] | 99.5 |
| N#C/C(=C/c1cn(CC(=O)O)c2ccccc12)c1ccc(C(=O)O)cc1 [CBK268977] | 111 |
| NC(=O)CC1C(=O)N(c2ccc(F)cc2)C(=S)N1NC(=O)CCc1ccccc1 (stereo not shown) [CBK268978A] | 108 |
| Cc1occc1-c1nnc(SCC(=O)Nc2cccc3nsnc23)o1 [CBK268979] | 89.5 |
| Cc1ccc(NC(=O)C2CC=CCC2C(=O)O)cc1NC(=O)c1ccc(Cl)cc1 (stereo not shown) [CBK268980] | 92.6 |
| Cc1nn(CCCC(=O)Nc2sc3c(c2C#N)CCC(C(C)(C)C)C3)c(C)c1[N+](=O)[O-] (stereo not shown) [CBK268982] | 103 |
| Cc1cc(-c2nnc(SCC(=O)N3CCOCC3)o2)no1 [CBK268984] | 103 |
| O=C(O)CCc1ccc(-c2ccc(F)cc2)n1CC1CCCO1 (stereo not shown) [CBK268988] | 86.5 |
| COc1ccc(N2CCN(CC(=O)N3CCC(C(N)=O)CC3)CC2)cc1 [CBK268993] | 96.6 |
| CS(=O)(=O)N(CC(=O)Nc1ccc(S(=O)(=O)N2CCCC2)cc1)c1ccc2c(c1)OCO2 [CBK268995] | 97.7 |

| Compound | viability at 28.5 h, 10 µM [%] |
| --- | --- |
| N#Cc1ccccc1CSc1nc(N2CCOCC2)nc(N2CCOCC2)n1 [CBK268998] | 92.3 |
| CN1CCN(C(=O)C2CCCN(S(=O)(=O)c3ccc(Br)cc3)C2)CC1 (stereo not shown) [CBK269006] | 107 |
| O=C(CSc1nnc(-c2cc(Br)ccc2O)[nH]1)NCCc1ccccc1 [CBK269007] | 85.8 |
| COc1cc(C2c3c(-c4cc(C)c(C)cc4O)n[nH]c3C(=O)N2CCO)cc(Br)c1O (stereo not shown) [CBK269009] | 112 |
| CCn1c2ccccc2c2cc(NC(=O)CSc3nnc(-c4ccoc4C)o3)ccc21 [CBK269010] | 105 |
| Cc1cc(C)n2nc(C(=O)NCc3ccccn3)cc2n1 [CBK269015] | 89.3 |
| CC(C)(C)c1ccc(O)c(NC(=S)NC(=O)c2cccc(OCc3ccccc3)c2)c1 [CBK269018] | 97.3 |
| COc1cc(C2NC(=O)N(CCc3ccccc3)C(c3ccccc3)=C2C(C)=O)ccc1O (stereo not shown) [CBK269024] | 108 |
| CCOC(=O)c1cnc(SCC(=O)N2c3ccccc3SC3C=CC=CC32)nc1N (stereo not shown) [CBK269029] | 99.6 |
| Cc1cccc(OCc2nnc(SCc3nc4ccccc4c(=O)[nH]3)o2)c1 [CBK269030] | 98.7 |
| O=S(=O)(N1CCCCC1)N1CCN(CC(O)COc2ccc3cc(Br)ccc3c2)CC1 (stereo not shown) [CBK269032] | 106 |
| NC(=O)CC1C(=O)N(c2ccc(F)cc2)C(=O)N1NC(=O)CCc1ccccc1 (stereo not shown) [CBK269033] | 104 |
| O=C(Nc1ccncc1)c1ccc2nc[nH]c2c1 [CBK269034] | 93.2 |
| Cc1cc(N2C(=O)CC(N3CCC(C(=O)N4CCOCC4)CC3)C2=O)no1 (stereo not shown) [CBK269035] | 92.6 |
| CN(C)c1nc(N(C)C)nc(N(C#N)S(=O)(=O)c2ccccc2Cl)n1 [CBK269036] | 88.3 |
| COc1cc(C(=S)N2CCN(C)CC2)ccc1OCC(N)=O [CBK269037] | 84.7 |
| O=C(NC(=S)Nc1ccc(-c2ccc(CO)o2)cc1)c1ccc2c(c1)OCCO2 [CBK269038] | 82.9 |
| Cc1ccc(N(CC(=O)NCC2CCCO2)S(=O)(=O)c2ccc(Cl)cc2)cc1 (stereo not shown) [CBK269039] | 104 |
| Cc1occc1-c1nnc(SCC(=O)Nc2c(C)n(C)n(-c3ccccc3)c2=O)o1 [CBK269042] | 90.9 |
